Columns and labels:
[1] = system: spontaneously hypertensive rats (SHR); test: Arterial pressure in anaesthetized spontaneously hypertensive rats (carotid catheter); format: in vivo; conditions: SHR rat, single intravenous injection, verapamil 0.1 or 0.3 mg/kg, captopril 1 mg/kg; for time of return of arterial pressure to initial values after injection: G protein inhibitor 1 mg/kg; for effect on arterial pressure (in words): G protein inhibitor 1 mg/kg (FIG. 1)
Experimental: (§1) 13/14 week old male SHR rats (Charles River France) are anaesthetized using pentobarbital (Sanofi) (60 mg/kg/IP). […] After a stabilization period of 10 minutes, the product or two products simultaneously are administered and their effects are monitored for 20 minutes.
(§2) For administration purposes, 7-(2-amino-1-oxo-3-thiopropyl)-8-(cyclohexylmethyl)-2-phenyl-5,6,7,8-tetrahydro-imidazo[1,2a]pyrazine, verapamil (Sigma, USA) and captopril (Sigma, USA) can be dissolved in an aqueous solution of NaCl at 0.9%.

[2] = system: spontaneously hypertensive rats (SHR); test: Heart rate in anaesthetized spontaneously hypertensive rats (carotid catheter); format: in vivo; set-up: Frequency difference (Δ) (reduction in heart rate): unit not given here; conditions: SHR rat; for Frequency difference (Δ) (reduction in heart rate): single product, intravenous, monitored 20 minutes; for reduction in heart rate, maximum difference (delta): baseline 328 to 371 beats per minute (FIG. 2)
Experimental: as §1, §2

Structure (SMILES)	time of return of arterial pressure to initial values after injection [1] [min]	effect on arterial pressure (in words) [1]	Frequency difference (Δ) (reduction in heart rate) ([2]; dose 1 mg/kg)	change of heart rate (in words) ([2]; single products, single intravenous injection (FIG. 2))	reduction in heart rate, maximum difference (delta) ([2]; 1 mg/kg intravenous)	reduction in heart rate, maximum difference (delta) ([2]; 0.1 mg/kg intravenous)	reduction in heart rate, maximum difference (delta) ([2]; 0.3 mg/kg intravenous)	Frequency difference (Δ) (reduction in heart rate) ([2]; dose 0.1 mg/kg)	Frequency difference (Δ) (reduction in heart rate) ([2]; dose 0.3 mg/kg)
C[C@H](CS)C(=O)N1CCC[C@H]1C(=O)O [Captopril, captopril]	20	immediate reduction	1	does not change the heart rate at all					
NC(CS)C(=O)N1CCn2cc(-c3ccccc3)nc2C1CC1CCCCC1 (centres unmarked) [Compound 2, 7-(2-amino-1-oxo-3-thiopropyl)-8-(cyclohexylmethyl)-2-phenyl-5,6,7,8-tetrahydroimidazo[1,2a]pyrazine]	20	immediate reduction	44		44				
COc1ccc(CCN(C)CCCC(C#N)(c2ccc(OC)c(OC)c2)C(C)C)cc1OC (centres unmarked) [Verapamil, verapamil]	20	immediate reduction				32	56	28	56

— patent US7132553B2, “Product comprising an inhibitor of the transduction of heterotrimeric G protein signals combined with an anti-hypertensive agent for therapeutic use in the treatment of arterial hypertension” (Societe de Conseils de Recherches et d'Applications …, priority 2000, dated 2006)
